Holding throughout (format): cell-based
In series [1] the target is Indoleamine 2,3-dioxygenase 1 (Homo sapiens) (UniProt P14902). As to the kind of experiment: Inhibition of human IDO1 expressed in HEK293-EBNA cells assessed as reduction in kynurenine formation using tryptophan as substrate at 25 uM incubated for 24 hrs by HPLC analysis relative to control.
A short description of series [2]: Cytotoxicity against human HEK293-EBNA cells assessed as cell viability at 3.12 uM by MTS/PMS assay. Particulars: read-out: Activity.
The target of series [3] is Indoleamine 2,3-dioxygenase 1 (Homo sapiens) (UniProt P14902). As to the kind of experiment: Inhibition of human IDO1 expressed in HEK293-EBNA cells assessed as reduction in kynurenine formation using tryptophan as substrate at 12.5 uM incubated for 24 hrs by HPLC analysis relative to control.
The target in series [4] is Tryptophan 2,3-dioxygenase (Homo sapiens) (UniProt P48775). The series can be described thus: Inhibition of human TDO expressed in HEK293-EBNA cells assessed as reduction in kynurenine formation using tryptophan as substrate at 3.12 uM incubated for 24 hrs by HPLC analysis relative to control.
Chain of Tryptophan 2,3-dioxygenase (Homo sapiens) (P48775 whole entry, looked up): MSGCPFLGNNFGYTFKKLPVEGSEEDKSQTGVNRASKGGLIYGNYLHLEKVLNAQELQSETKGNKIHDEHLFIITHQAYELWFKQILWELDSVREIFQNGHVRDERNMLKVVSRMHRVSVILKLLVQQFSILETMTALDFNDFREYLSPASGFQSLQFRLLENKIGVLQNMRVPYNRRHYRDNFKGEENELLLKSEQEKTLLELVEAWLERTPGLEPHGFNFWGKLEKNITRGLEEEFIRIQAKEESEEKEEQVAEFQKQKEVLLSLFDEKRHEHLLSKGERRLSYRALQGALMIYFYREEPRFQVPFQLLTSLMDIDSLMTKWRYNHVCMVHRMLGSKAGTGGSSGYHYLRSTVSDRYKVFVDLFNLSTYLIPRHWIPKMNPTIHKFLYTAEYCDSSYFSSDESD
The target in series [5] is Indoleamine 2,3-dioxygenase 1 (Homo sapiens) (UniProt P14902). The series can be described thus: Inhibition of human IDO1 expressed in HEK293-EBNA assessed as reduction in kynurenine formation using tryptophan as substrate at 3.12 uM incubated for 24 hrs by HPLC analysis relative to control.
The nature of series [6]: Cytotoxicity against human HEK293-EBNA cells assessed as cell viability at 25 uM by MTS/PMS assay. Particulars: read-out: Activity.
Series [7] can be described thus: Cytotoxicity against human HEK293-EBNA cells assessed as cell viability at 6.25 uM by MTS/PMS assay. Particulars: read-out: Activity.
The target of series [8] is Tryptophan 2,3-dioxygenase (Homo sapiens) (UniProt P48775). The series can be described thus: Inhibition of human TDO expressed in HEK293-EBNA cells assessed as reduction in kynurenine formation using tryptophan as substrate at 12.5 uM incubated for 24 hrs by HPLC analysis relative to control.
Series [9] has the same target. As to the kind of experiment: Inhibition of human TDO expressed in HEK293-EBNA cells assessed as reduction in kynurenine formation using tryptophan as substrate at 25 uM incubated for 24 hrs by HPLC analysis relative to control.
Series [10] addresses Indoleamine 2,3-dioxygenase 1 (Homo sapiens) (UniProt P14902). The series can be described thus: Inhibition of human IDO1 expressed in HEK293-EBNA cells assessed as reduction in kynurenine formation using tryptophan as substrate at 6.25 uM incubated for 24 hrs by HPLC analysis relative to control.
The target of series [11] is Tryptophan 2,3-dioxygenase (Homo sapiens) (UniProt P48775). As to the kind of experiment: Inhibition of human TDO expressed in HEK293-EBNA cells assessed as reduction in kynurenine formation using tryptophan as substrate at 6.25 uM incubated for 24 hrs by HPLC analysis relative to control.
The nature of series [12]: Cytotoxicity against human HEK293-EBNA cells assessed as cell viability at 12.5 uM by MTS/PMS assay. Particulars: read-out: Activity.

Chain of Indoleamine 2,3-dioxygenase 1 (Homo sapiens) (P14902 whole entry, looked up): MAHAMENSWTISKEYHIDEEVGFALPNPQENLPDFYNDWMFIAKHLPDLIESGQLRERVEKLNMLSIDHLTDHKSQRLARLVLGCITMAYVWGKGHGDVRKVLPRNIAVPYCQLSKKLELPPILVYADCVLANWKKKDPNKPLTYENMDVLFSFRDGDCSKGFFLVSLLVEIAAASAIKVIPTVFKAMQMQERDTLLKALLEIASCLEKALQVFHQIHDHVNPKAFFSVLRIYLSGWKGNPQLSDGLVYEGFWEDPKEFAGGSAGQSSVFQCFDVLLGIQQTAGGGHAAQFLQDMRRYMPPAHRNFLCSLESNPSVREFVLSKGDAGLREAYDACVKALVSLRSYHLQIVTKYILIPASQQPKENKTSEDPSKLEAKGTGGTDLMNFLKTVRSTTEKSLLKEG

With `O=C1c2[nH]cc3c2C(=NCC3)c2c(-c3ccccc3)n[nH]c21`, the inhibition (in general, how much of the control response was suppressed) in series [1] is 5%; in [3], 5%; in series [4], 3%; in series [5], 4%; in series [8], 6%; in series [9], 5%. Also, the inhibition stood at 4% in [10] and 5% in series [11]. Moreover, the viability at 3.12 µM in series [2] is 93%. In addition, the viability at 25 µM in [6] worked out at 84%. In addition, the viability at 6.25 µM in series [7] is 93%. For the same compound, the viability at 12.5 µM in series [12] worked out at 94%.
